A word on the Kd: it is the equilibrium constant for the complex coming apart. Read a low Kd as higher affinity.

The values that follow come from PMC6081452, “Downstream Products are Potent Inhibitors of the Heparan Sulfate 2-O-Sulfotransferase” (Scientific Reports, 2018).

The target of this test is T1, glyc-HS2ST (glycosylated human HS2ST), WT (Homo sapiens, UniProt Q7LGA3).
T1 construct: the human HS2ST catalytic domain region comprising of 328 amino acid residues; His8 (N, cleaved yes); AviTag (N, cleaved yes); superfolder GFP (N, cleaved yes); made in house; host or cells: HEK293-F (transient transfection, secreted)
T1 sequence (Q7LGA3 29-356 limits assumed): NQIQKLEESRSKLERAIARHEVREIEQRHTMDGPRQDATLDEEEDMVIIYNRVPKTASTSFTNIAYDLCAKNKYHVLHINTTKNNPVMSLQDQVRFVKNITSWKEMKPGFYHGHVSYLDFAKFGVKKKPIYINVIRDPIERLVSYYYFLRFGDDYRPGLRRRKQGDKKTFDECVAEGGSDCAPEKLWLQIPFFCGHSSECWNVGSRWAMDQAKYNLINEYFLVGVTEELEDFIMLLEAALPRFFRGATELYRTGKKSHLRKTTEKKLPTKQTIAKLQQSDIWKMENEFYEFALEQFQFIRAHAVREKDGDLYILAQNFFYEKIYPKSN
Briefly: BLI equilibrium binding, glyc-HS2ST WT. The note with it: BLI saturation binding curves, biotin-PEG4-linked hexasaccharide immobilised on sensor, n = 3, ± standard error of fit, 25 °C, PBS pH 7.8. The source says:
HS-protein binding studies often utilize biologically-derived oligosaccharides of heterogeneous length and sulfation[34],[35]; however, the synthesis of oligosaccharides with defined length and specific sulfation patterns has recently become possible. We employed biolayer interferometry (BLI) to determine equilibrium surface binding constants (KD) for HS2ST with synthetic HS hexasaccharides (Fig. 1 and Supplementary Table 1). The HS compounds were attached to the BLI biosensor surface to conserve sample and to ensure a significant signal upon protein binding. The HS compounds contained a biotinylated PEG4 linker at the reducing terminus, enhancing the likelihood of a consistent presentation of the linear glycan on the sensor surface, in contrast to immobilizations via intra-chain modifications. […]
An expression construct was generated encoding the truncated catalytic domain of human HS2ST as an NH2-terminal fusion protein in the pGEn2 expression vector essentially as described in prior studies. […] The recombinant human HS2ST was expressed as a soluble secreted protein by transient transfection of suspension culture HEK293-F cells (FreeStyle^TM 293-Fcells, Thermo Fisher Scientific, Waltham MA) maintained at 0.5–3.0 × 10^6 cells/ml in a humidified CO2 platform shaker incubator at 37 °C with 55% humidity. […]

Regarding “GlcNS-GlcA-GlcNS-IdoA2S-GlcNS-GlcA~ [Compound 2]”, binding was characterised by a dissociation constant (Kd) of 138 ± 19 nM.
